Measured values published in patent US9540397B2, “BACE1 inhibitors” (Hoffmann-La Roche Inc., priority 2014, dated 2017).

What follows are compounds tested against T1, BACE1 (Homo sapiens, UniProt P56817) (assay: Cellular Aβ-lowering assay (Abeta 40 AlphaLISA, HEK293 APP cells)). Settings: 18-20 hrs incubation, Aβ40 in culture supernatant, read-out: BACE1 cell act. Aβ40 IC50.
T1 construct: endogenous in cells; host or cells: HEK293 APP cells
Type: cell-based
Method: Cellular Aβ-lowering assay:
The Abeta 40 AlphaLISA Assay can be used. The HEK293 APP cells were seeded in 96 well Microtiter plates in cell culture medium (Iscove's, plus 10% (v/v) fetal bovine serum, penicillin/streptomycin) to about 80% confluency and the compounds were added at a 3× concentration in ⅓ volume of culture medium (final DMSO concentration was kept at 1% v/v). After 18-20 hrs incubation at 37° C. and 5% CO2 in a humidified incubator, the culture supernatants were harvested for the determination of AP 40 concentrations using Perkin-Elmer Human Amyloid beta 1-40 (high specificity) Kit (Cat#AL275C).
In a Perkin-Elmer White Optiplate-384 (Cat#6007290), 2 ul culture supernatants were combined with 2 μl of a 10× AlphaLISA Anti-hAβ Acceptor beads+Biotinylated Antibody Anti-Aβ 1-40 Mix ([…]/5 nM). After 1 hour room temperature incubation, 16 μl of a 1.25× preparation of Streptavidin (SA) Donor beads (25 μg/mL) were added and incubated for 30 minutes in the Dark. Light Emission at 615 nm was then recorded using EnVision-Alpha Reader. Levels of Aβ 40 in the culture supernatants were calculated as percentage of maximum signal (cells treated with 1% DMSO without inhibitor). The IC50 values were calculated using the Excel XLfit software.

T1 sequence (P56817 46-501): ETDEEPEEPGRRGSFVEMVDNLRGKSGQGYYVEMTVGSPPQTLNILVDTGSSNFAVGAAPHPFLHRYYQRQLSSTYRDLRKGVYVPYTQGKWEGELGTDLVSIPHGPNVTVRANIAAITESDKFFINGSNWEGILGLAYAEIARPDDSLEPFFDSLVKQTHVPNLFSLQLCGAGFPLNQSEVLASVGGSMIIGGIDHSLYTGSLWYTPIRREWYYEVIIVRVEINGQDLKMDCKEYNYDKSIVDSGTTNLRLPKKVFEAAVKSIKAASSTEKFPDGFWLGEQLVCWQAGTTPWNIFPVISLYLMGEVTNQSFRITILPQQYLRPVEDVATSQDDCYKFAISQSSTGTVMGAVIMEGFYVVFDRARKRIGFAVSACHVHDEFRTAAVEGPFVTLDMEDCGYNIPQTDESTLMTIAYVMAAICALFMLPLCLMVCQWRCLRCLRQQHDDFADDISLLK

Row | IC50 [nM] | Structure (SMILES)
1 | < 10 | CC1(C)C(N)=N[C@](C)(c2nc(NC(=O)c3nn(C(F)F)cc3Cl)ccc2F)[C@@H]2CCN=[S@@]21=O [Example 51AB, N-(6-((3aS,4R,8R)-6-amino-4,7,7-trimethyl-8-oxido-3,3a,4,7-tetrahydro-2H-isothiazolo[1,5-a][1,4]thiazin-4-yl)-5-fluoropyridin-2-yl)-4-chloro-1-(difluoromethyl)-1H-pyrazole-3-carboxamide]
2 | 144 | CC1(C)C(N)=N[C@](C)(c2nc(NC(=O)c3cnc(OCC(F)F)cn3)ccc2F)[C@H]2CC(F)(F)CN=[S@@]21=O [Example 46AA, N-(6-((4aR,5R,9R)-7-amino-3,3-difluoro-5,8,8-trimethyl-9-oxido-2,3,4,4a,5,8-hexahydro-[1,4]thiazino[2,1-f][1,2]thiazin-5-yl)-5-fluoropyridin-2-yl)-5-(2,2-difluoroethoxy)pyrazine-2-carboxamide]
3 | 420 | Cc1cc(F)cnc1C(=O)Nc1ccc(F)c([C@@]2(C)N=C(N)C(C)(C)[S@]3(=O)=NCC[C@H]23)n1 [Example 10BA, N-(6-((3aR,4R,8S)-6-amino-4,7,7-trimethyl-8-oxido-3,3a,4,7-tetrahydro-2H-isothiazolo[1,5-a][1,4]thiazin-4-yl)-5-fluoropyridin-2-yl)-5-fluoro-3-methylpicolinamide]
4 | 24.2 | Cc1cc(Cl)cnc1C(=O)Nc1ccc(F)c([C@@]2(C)N=C(N)C(C)(C)[S@]3(=O)=NCC[C@H]23)n1 [Example 12BA, N-(6-((3aR,4R,8S)-6-amino-4,7,7-trimethyl-8-oxido-3,3a,4,7-tetrahydro-2H-isothiazolo[1,5-a][1,4]thiazin-4-yl)-5-fluoropyridin-2-yl)-5-chloro-3-methylpicolinamide]
5 | 152 | CC1(C)C(N)=N[C@](C)(c2nc(NC(=O)c3cnc(OC(F)F)cn3)ccc2F)[C@H]2CCN=[S@]21=O [Example 26BA, N-(6-((3aR,4R,8S)-6-amino-4,7,7-trimethyl-8-oxido-3,3a,4,7-tetrahydro-2H-isothiazolo[1,5-a][1,4]thiazin-4-yl)-5-fluoropyridin-2-yl)-5-(difluoromethoxy)pyrazine-2-carboxamide]

The remaining lines, values behind:

Row | Structure (SMILES) | IC50 [nM]
6 | CC1(C)C(N)=N[C@](C)(c2nc(NC(=O)c3ccc(F)cn3)ccc2F)[C@H]2CCN=[S@]21=O [Example 27BA, N-(6-((3aR,4R,8S)-6-amino-4,7,7-trimethyl-8-oxido-3,3a,4,7-tetrahydro-2H-isothiazolo[1,5-a][1,4]thiazin-4-yl)-5-fluoropyridin-2-yl)-5-fluoropicolinamide] | 118
7 | COc1cnc(C(=O)Nc2ccc(F)c([C@@]3(C)N=C(N)C(C)(C)[S@@]4(=O)=NCC(F)(F)C[C@H]34)n2)cn1 [Example 38AA, N-(6-((4aR,5R,9R)-7-amino-3,3-difluoro-5,8,8-trimethyl-9-oxido-2,3,4,4a,5,8-hexahydro-[1,4]thiazino[2,1-f][1,2]thiazin-5-yl)-5-fluoropyridin-2-yl)-5-methoxypyrazine-2-carboxamide] | 295
8 | CC1(C)C(N)=N[C@](C)(c2nc(NC(=O)c3ccc(OC(F)F)cn3)ccc2F)[C@H]2CCN=[S@]21=O [Example 14BA, N-(6-((3aR,4R,8S)-6-amino-4,7,7-trimethyl-8-oxido-3,3a,4,7-tetrahydro-2H-isothiazolo[1,5-a][1,4]thiazin-4-yl)-5-fluoropyridin-2-yl)-5-(difluoromethoxy)picolinamide] | 52.6
9 | CC1(C)C(N)=N[C@](C)(c2nc(NC(=O)c3ccc(OCF)cn3)ccc2F)[C@H]2CCN=[S@]21=O [Example 13BA, N-(6-((3aR,4R,8S)-6-amino-4,7,7-trimethyl-8-oxido-3,3a,4,7-tetrahydro-2H-isothiazolo[1,5-a][1,4]thiazin-4-yl)-5-fluoropyridin-2-yl)-5-(fluoromethoxy)picolinamide] | 382
